# From the kinase profiling compilation of Christmann-Franck et al. (2016)
# Legend:
# Experiment in all cases: radiometric filter-binding kinase assay, Kinase HotSpot
# [1] = target: ADRBK2 (human) (UniProt P35626); conditions: compound 0.5 µM; ATP 10 µM
# [2] = target: CAMK1G (human) (UniProt Q96NX5); conditions: compound 0.5 µM; ATP 10 µM
# [3] = target: CAMK2D (human) (UniProt Q13557); conditions: compound 0.5 µM; ATP 10 µM
# [4] = target: CAMK2G (human) (UniProt Q13555); conditions: compound 0.5 µM; ATP 10 µM
# Sequence of CAMK2G (human) (Q13555 whole entry, looked up): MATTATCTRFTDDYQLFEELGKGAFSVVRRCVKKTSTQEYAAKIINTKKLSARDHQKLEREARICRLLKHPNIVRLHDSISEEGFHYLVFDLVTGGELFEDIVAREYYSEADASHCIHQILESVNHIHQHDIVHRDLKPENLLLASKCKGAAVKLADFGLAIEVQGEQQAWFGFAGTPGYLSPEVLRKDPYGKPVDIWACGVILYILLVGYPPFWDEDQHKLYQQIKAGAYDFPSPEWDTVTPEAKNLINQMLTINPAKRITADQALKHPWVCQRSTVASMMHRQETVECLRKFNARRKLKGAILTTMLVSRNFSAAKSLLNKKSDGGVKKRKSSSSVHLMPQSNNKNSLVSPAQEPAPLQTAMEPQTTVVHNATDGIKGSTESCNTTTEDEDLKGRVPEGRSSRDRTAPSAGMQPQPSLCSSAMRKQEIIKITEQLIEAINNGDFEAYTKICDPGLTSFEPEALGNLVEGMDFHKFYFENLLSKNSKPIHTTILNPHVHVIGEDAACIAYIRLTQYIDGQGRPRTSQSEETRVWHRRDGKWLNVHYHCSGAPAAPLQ
# [5] = target: CDC42BPA (human) (UniProt Q5VT25); conditions: compound 0.5 µM; ATP 10 µM
# [6] = target: CSNK1G3 (human) (UniProt Q9Y6M4); conditions: compound 0.5 µM; ATP 10 µM
# [7] = target: DYRK2 (human) (UniProt Q92630); conditions: compound 0.5 µM; ATP 10 µM
# Sequence of DYRK2 (human) (Q92630 whole entry, looked up): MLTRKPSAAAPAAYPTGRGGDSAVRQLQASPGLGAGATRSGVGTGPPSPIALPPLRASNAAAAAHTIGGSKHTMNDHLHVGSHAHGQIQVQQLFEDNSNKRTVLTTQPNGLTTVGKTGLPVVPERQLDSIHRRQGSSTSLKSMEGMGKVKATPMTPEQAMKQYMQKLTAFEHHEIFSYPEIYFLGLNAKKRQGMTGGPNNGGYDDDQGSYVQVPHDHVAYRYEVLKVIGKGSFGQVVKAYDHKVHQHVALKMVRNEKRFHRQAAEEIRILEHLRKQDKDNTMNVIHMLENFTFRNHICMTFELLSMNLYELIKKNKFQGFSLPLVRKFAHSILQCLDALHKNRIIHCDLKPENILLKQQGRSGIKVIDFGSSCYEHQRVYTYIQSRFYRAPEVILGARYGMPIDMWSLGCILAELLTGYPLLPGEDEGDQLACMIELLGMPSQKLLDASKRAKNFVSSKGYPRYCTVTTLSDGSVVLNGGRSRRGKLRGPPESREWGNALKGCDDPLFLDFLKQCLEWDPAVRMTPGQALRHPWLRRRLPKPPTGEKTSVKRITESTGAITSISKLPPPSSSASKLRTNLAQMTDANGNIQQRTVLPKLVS
# [8] = target: EPHA2 (human) (UniProt P29317); conditions: compound 0.5 µM; ATP 10 µM
# [9] = target: EPHA3 (human) (UniProt P29320); conditions: compound 0.5 µM; ATP 10 µM
# [10] = target: EPHB1 (human) (UniProt P54762); conditions: compound 0.5 µM; ATP 10 µM
# [11] = target: FGFR2 (human) (UniProt P21802); conditions: compound 0.5 µM; ATP 10 µM
# [12] = target: GRK5 (human) (UniProt P34947); conditions: compound 0.5 µM; ATP 10 µM
# [13] = target: HIPK3 (human) (UniProt Q9H422); conditions: compound 0.5 µM; ATP 10 µM
# [14] = target: IRAK1 (human) (UniProt P51617); conditions: compound 0.5 µM; ATP 10 µM
# [15] = target: IRAK4 (human) (UniProt Q9NWZ3); conditions: compound 0.5 µM; ATP 10 µM
# [16] = target: MAPK11 (human) (UniProt Q15759); conditions: compound 0.5 µM; ATP 10 µM
# Sequence of MAPK11 (human) (Q15759 whole entry, looked up): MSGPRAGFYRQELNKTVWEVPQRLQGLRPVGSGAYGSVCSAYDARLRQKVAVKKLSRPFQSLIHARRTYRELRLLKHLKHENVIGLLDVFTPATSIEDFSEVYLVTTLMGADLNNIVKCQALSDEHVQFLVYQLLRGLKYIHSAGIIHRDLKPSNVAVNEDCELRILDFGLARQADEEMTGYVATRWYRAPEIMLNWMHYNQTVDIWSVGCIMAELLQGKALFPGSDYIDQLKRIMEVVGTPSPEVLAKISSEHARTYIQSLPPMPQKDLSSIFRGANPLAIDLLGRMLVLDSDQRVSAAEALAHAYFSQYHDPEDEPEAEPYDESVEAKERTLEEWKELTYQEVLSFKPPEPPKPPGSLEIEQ
# [17] = target: MARK2 (human) (UniProt Q7KZI7); conditions: compound 0.5 µM; ATP 10 µM
# [18] = target: MELK (human) (UniProt Q14680); conditions: compound 0.5 µM; ATP 10 µM
# [19] = target: MLTK (human) (UniProt Q9NYL2); conditions: compound 0.5 µM; ATP 10 µM
# [20] = target: MUSK (human) (UniProt O15146); conditions: compound 0.5 µM; ATP 10 µM
# [21] = target: NEK2 (human) (UniProt P51955); conditions: compound 0.5 µM; ATP 10 µM
# Sequence of NEK2 (human) (P51955 whole entry, looked up): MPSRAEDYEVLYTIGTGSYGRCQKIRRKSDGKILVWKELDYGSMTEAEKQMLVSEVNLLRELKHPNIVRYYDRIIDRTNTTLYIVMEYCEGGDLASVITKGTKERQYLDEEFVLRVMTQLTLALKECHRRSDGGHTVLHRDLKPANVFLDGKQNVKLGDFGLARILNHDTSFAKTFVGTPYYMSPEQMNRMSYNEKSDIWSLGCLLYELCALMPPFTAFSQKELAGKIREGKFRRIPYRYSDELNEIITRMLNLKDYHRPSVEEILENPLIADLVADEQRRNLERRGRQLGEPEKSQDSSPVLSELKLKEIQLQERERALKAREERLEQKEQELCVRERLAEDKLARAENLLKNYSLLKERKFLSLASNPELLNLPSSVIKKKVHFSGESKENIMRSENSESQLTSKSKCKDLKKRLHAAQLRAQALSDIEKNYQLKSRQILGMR
# [22] = target: NEK3 (human) (UniProt P51956); conditions: compound 0.5 µM; ATP 10 µM
# [23] = target: NEK9 (human) (UniProt Q8TD19); conditions: compound 0.5 µM; ATP 10 µM
# [24] = target: NUAK1 (human) (UniProt O60285); conditions: compound 0.5 µM; ATP 10 µM
# Sequence of NUAK1 (human) (O60285 whole entry, looked up): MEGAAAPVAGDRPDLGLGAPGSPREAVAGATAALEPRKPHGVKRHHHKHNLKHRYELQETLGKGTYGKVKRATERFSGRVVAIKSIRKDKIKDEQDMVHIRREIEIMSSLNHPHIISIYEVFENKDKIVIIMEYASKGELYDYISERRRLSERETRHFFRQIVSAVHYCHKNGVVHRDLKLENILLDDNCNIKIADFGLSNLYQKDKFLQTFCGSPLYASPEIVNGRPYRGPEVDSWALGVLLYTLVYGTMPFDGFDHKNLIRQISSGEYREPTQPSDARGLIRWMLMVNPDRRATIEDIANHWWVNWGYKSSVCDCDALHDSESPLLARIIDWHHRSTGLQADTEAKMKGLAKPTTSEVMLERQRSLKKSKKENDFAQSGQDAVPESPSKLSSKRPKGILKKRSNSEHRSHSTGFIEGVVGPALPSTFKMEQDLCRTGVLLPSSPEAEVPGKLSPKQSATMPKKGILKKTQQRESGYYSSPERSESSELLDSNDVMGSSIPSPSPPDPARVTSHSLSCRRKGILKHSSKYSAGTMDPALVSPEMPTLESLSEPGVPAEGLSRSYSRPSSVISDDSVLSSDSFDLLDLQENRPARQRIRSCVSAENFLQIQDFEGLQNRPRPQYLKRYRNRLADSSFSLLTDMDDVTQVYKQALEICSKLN
# [25] = target: NUAK2 (human) (UniProt Q9H093); conditions: compound 0.5 µM; ATP 10 µM
# [26] = target: PAK4 (human) (UniProt O96013); conditions: compound 0.5 µM; ATP 10 µM
# [27] = target: PAK7 (human) (UniProt Q9P286); conditions: compound 0.5 µM; ATP 10 µM
# [28] = target: PASK (human) (UniProt Q96RG2); conditions: compound 0.5 µM; ATP 10 µM
# Sequence of PASK (human) (Q96RG2 whole entry, looked up): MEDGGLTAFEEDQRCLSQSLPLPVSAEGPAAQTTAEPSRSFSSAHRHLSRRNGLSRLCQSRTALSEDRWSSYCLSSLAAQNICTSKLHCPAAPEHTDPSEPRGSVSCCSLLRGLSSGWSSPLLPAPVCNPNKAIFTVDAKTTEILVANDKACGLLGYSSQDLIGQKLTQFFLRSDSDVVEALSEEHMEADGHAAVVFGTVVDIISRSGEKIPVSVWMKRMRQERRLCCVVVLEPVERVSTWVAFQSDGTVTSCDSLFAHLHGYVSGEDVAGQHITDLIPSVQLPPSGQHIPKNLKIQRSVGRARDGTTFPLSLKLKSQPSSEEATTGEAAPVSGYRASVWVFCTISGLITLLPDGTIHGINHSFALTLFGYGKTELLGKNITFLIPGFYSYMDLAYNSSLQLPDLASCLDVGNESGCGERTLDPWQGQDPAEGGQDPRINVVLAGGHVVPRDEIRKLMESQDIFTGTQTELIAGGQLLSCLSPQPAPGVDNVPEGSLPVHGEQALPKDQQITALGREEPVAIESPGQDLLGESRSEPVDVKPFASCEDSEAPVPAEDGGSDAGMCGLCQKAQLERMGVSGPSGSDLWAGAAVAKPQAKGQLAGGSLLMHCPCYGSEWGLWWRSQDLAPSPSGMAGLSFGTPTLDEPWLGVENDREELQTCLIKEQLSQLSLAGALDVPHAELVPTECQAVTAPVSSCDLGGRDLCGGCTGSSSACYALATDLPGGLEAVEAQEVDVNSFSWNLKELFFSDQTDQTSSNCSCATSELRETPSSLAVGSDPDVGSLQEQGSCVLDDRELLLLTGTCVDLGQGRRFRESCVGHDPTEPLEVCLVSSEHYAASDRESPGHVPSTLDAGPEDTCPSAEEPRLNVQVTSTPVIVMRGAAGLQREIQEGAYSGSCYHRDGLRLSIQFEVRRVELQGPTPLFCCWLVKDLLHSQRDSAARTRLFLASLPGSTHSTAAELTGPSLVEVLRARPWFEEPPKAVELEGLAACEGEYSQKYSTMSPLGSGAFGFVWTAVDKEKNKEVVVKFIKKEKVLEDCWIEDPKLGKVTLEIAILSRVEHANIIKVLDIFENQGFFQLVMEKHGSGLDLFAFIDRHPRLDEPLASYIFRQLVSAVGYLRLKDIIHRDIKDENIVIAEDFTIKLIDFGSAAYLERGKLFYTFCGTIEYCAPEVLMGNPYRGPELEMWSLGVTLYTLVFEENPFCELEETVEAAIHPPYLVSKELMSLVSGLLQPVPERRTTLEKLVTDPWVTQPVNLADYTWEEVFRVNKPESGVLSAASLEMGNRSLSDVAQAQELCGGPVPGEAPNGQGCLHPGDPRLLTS
# [29] = target: PDGFRA (human) (UniProt P16234); conditions: compound 0.5 µM; ATP 10 µM
# [30] = target: PNCK (human) (UniProt Q6P2M8); conditions: compound 0.5 µM; ATP 10 µM
# Sequence of PNCK (human) (Q6P2M8 whole entry, looked up): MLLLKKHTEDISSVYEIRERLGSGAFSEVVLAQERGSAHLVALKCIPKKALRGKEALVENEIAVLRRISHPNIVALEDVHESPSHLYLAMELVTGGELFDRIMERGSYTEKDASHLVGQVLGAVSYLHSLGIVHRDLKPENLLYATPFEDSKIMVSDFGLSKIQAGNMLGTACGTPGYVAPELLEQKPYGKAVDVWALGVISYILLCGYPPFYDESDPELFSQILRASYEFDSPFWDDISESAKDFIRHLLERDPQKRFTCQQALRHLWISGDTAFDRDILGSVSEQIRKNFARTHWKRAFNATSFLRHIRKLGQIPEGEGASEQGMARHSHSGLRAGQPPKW
# [31] = target: PRKD2 (human) (UniProt Q9BZL6); conditions: compound 0.5 µM; ATP 10 µM
# [32] = target: ROCK2 (human) (UniProt O75116); conditions: compound 0.5 µM; ATP 10 µM
# [33] = target: ROS1 (human) (UniProt P08922); conditions: compound 0.5 µM; ATP 10 µM
# [34] = target: RPS6KA1 KD1 KD2 (human) (UniProt Q15418); conditions: compound 0.5 µM; ATP 10 µM
# Sequence of RPS6KA1 KD1 KD2 (human) (Q15418 whole entry, looked up): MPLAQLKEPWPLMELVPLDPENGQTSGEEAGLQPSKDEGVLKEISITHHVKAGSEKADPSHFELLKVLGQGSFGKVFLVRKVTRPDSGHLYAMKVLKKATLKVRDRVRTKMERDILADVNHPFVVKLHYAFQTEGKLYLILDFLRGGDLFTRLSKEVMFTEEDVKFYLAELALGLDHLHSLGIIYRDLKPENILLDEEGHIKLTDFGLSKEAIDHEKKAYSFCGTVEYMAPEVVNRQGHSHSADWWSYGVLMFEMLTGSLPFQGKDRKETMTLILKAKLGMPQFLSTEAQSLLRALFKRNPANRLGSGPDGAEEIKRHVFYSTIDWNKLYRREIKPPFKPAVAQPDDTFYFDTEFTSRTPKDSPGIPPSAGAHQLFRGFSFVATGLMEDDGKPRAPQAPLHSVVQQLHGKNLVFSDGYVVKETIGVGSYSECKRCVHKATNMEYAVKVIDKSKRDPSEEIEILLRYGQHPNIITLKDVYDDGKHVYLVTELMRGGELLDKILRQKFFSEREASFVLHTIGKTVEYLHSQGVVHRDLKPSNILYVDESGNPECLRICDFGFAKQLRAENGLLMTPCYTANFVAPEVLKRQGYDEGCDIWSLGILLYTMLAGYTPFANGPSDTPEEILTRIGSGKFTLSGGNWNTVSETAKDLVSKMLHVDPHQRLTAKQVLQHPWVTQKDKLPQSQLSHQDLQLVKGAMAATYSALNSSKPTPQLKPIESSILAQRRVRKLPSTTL
# [35] = target: RPS6KA3 KD1 KD2 (human) (UniProt P51812); conditions: compound 0.5 µM; ATP 10 µM
# [36] = target: RPS6KA6 KD1 KD2 (human) (UniProt Q9UK32); conditions: compound 0.5 µM; ATP 10 µM
# [37] = target: SRMS (human) (UniProt Q9H3Y6); conditions: compound 0.5 µM; ATP 10 µM
# [38] = target: STK17A (human) (UniProt Q9UEE5); conditions: compound 0.5 µM; ATP 10 µM
# [39] = target: STK39 (human) (UniProt Q9UEW8); conditions: compound 0.5 µM
# [40] = target: TAOK3 (human) (UniProt Q9H2K8); conditions: compound 0.5 µM; ATP 10 µM
# [41] = target: VRK1 (human) (UniProt Q99986); conditions: compound 0.5 µM; ATP 10 µM
# [42] = target: ZAP70 (human) (UniProt P43403); conditions: compound 0.5 µM; ATP 10 µM
smiles,measurement,setting,value
O=C(c1ccccc1)c1ccc(N2CCOCC2)cc1O,residual activity,[1],103%
same,residual activity,[2],96.1%
same,residual activity,[3],95.1%
same,residual activity,[4],94%
same,residual activity,[5],95.5%
same,residual activity,[6],98.8%
same,residual activity,[7],96.8%
same,residual activity,[8],104%
same,residual activity,[9],105%
same,residual activity,[10],104%
same,residual activity,[11],99.1%
same,residual activity,[12],105%
same,residual activity,[13],98.1%
same,residual activity,[14],103%
same,residual activity,[15],108%
same,residual activity,[16],99.3%
same,residual activity,[17],107%
same,residual activity,[18],103%
same,residual activity,[19],95%
same,residual activity,[20],101%
same,residual activity,[21],101%
same,residual activity,[22],95.6%
same,residual activity,[23],103%
same,residual activity,[24],94.9%
same,residual activity,[25],111%
same,residual activity,[26],104%
same,residual activity,[27],99.2%
same,residual activity,[28],94.3%
same,residual activity,[29],91.9%
same,residual activity,[30],101%
same,residual activity,[31],99.1%
same,residual activity,[32],96%
same,residual activity,[33],96%
same,residual activity,[34],96.2%
same,residual activity,[35],104%
same,residual activity,[36],101%
same,residual activity,[37],93.9%
same,residual activity,[38],97.9%
same,residual activity,[39]; ATP 10 µM,94.8%
same,residual activity,[40],99%
same,residual activity,[41],89.7%
same,residual activity,[42],95.9%
Cc1cc(Nc2nc(-c3ccccc3)nc3ccccc23)n[nH]1,residual activity,[1],106%
same,residual activity,[2],101%
same,residual activity,[3],97.3%
same,residual activity,[4],95.9%
same,residual activity,[5],108%
same,residual activity,[6],75%
same,residual activity,[7],84%
same,residual activity,[8],94.8%
same,residual activity,[9],88.9%
same,residual activity,[10],93.1%
same,residual activity,[11],83.7%
same,residual activity,[12],119%
same,residual activity,[13],88.5%
same,residual activity,[14],79.3%
same,residual activity,[15],93.2%
same,residual activity,[16],96.8%
same,residual activity,[17],89.6%
same,residual activity,[18],69.1%
same,residual activity,[19],87.1%
same,residual activity,[20],51%
same,residual activity,[21],99.3%
same,residual activity,[22],101%
same,residual activity,[23],79.9%
same,residual activity,[24],3.88%
same,residual activity,[25],71.1%
same,residual activity,[26],84.2%
same,residual activity,[27],53.1%
same,residual activity,[28],96.4%
same,residual activity,[29],81.6%
same,residual activity,[30],102%
same,residual activity,[31],75.9%
same,residual activity,[32],87.6%
same,residual activity,[33],16.7%
same,residual activity,[34],58%
same,residual activity,[35],66.1%
same,residual activity,[36],56.3%
same,residual activity,[37],98.7%
same,residual activity,[38],81.3%
same,residual activity,[39]; ATP 10 µM,118%
same,residual activity,[40],86.9%
same,residual activity,[41],81%
same,residual activity,[42],105%
O=c1[nH]c2ccccc2n1C1CCN(Cc2ccc(-c3nc4cc5[nH]cnc5cc4nc3-c3ccccc3)cc2)CC1,residual activity,[1],87.3%
same,residual activity,[2],101%
same,residual activity,[3],97.7%
same,residual activity,[4],105%
same,residual activity,[5],105%
same,residual activity,[6],96.5%
same,residual activity,[7],107%
same,residual activity,[8],103%
same,residual activity,[9],71.9%
same,residual activity,[10],104%
same,residual activity,[11],94.2%
same,residual activity,[12],109%
same,residual activity,[13],102%
same,residual activity,[14],109%
same,residual activity,[15],201%
same,residual activity,[16],102%
same,residual activity,[17],92.2%
same,residual activity,[18],110%
same,residual activity,[19],106%
same,residual activity,[20],96.8%
same,residual activity,[21],96.8%
same,residual activity,[22],97.2%
same,residual activity,[23],99.2%
same,residual activity,[24],103%
same,residual activity,[25],90.4%
same,residual activity,[26],102%
same,residual activity,[27],110%
same,residual activity,[28],110%
same,residual activity,[29],98.2%
same,residual activity,[30],95.5%
same,residual activity,[31],109%
same,residual activity,[32],109%
same,residual activity,[33],101%
same,residual activity,[34],101%
same,residual activity,[35],96.6%
same,residual activity,[36],109%
same,residual activity,[37],93.1%
same,residual activity,[38],98.2%
same,residual activity,[39],98.2%
same,residual activity,[40],111%
same,residual activity,[41],98.3%
same,residual activity,[42],97.3%
